Test results as given in patent EP4389751A1, “HETEROCYCLIC COMPOUNDS AND USES THEREOF” (Kumquat Biosciences Inc., priority 2021, dated 2024).
Like-named read-outs stand apart in the source and are kept apart here.

Experiments:
K-Ras G12S = target: T1, K-Ras G12S (Homo sapiens, UniProt P01116, G12S); assay: HTRF assay of the K-Ras / SOS1 interaction; type: biochemical; conditions: IC50 (against K-Ras G12D) to IC50 (against K-Ras G12S)
T1 construct: made in house; host or cells: E. coli (e.g., BL21 (DE3))
How it was run: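 GST-K-Ras G12S with anti-GST-Eu donor and His-hSOS1 with anti-6His-XL665 acceptor in ~5 mM HEPES pH 7.4, ~150 mM NaCl, 1 mM DTT, 0.05% BSA, 0.0025% Igepal. Read after ~10 min or longer; IC50 from 665/620 nm ratio, duplicates at 10 µM down to 0.01 µM.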

GP2D cells = assay: Cell proliferation assay (CellTiter-Glo), K-Ras G12D cells; type: cell-based; conditions: read-out: Inhibition of GP2D Cells (IC50)
How it was run: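 GP2D (K-Ras G12D) cells seeded in DMEM with 2 mM glutamine and 10% FBS, then dosed next day with a dilution series (e.g., 9-point 3-fold). Viability read by CellTiter-Glo luminescence after about 5 days. IC50 from four-parameter fit.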

T1 sequence (P01116 1-188 isoform P01116-2 G12S): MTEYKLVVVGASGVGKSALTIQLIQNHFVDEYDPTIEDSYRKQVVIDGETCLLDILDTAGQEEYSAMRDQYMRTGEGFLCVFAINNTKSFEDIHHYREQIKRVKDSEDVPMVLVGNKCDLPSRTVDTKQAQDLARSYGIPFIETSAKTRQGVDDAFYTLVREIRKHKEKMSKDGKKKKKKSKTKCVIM

Structure (SMILES)	Ratio of IC50 KRAS G12D vs. IC50 KRAS G12S (K-Ras G12S)	IC50 (GP2D cells; GP2d) [nM]	IC50 (GP2D cells; GP2D cells (K-Ras G12D)) [nM]
N#Cc1ccn(C(=O)N2C3CCC2CN(c2nc(OC[C@@]45CCCN4C[C@H](F)C5)nc4c(F)c(-c5ccc(F)c6sc(N)nc56)c(Cl)cc24)C3)c1 [Compound A188, 1-(3-(7-(2-amino-7-fluorobenzo[d]thiazol-4-yl)-6-chloro-8-fluoro-2-(((2R,7aS)-2-fluorotetrahydro-1H-pyrrolizin-7a(5H)-yl)methoxy)quinazolin-4-yl)-3,8-diazabicyclo[3.2. 1]octane-8-carbonyl)-1H-pyrrole-3-carbonitrile]	A (A: indicates that the ratio of IC50 against KrasG12D vs. IC50 against KrasG12S is 1-fold or greater)	≤ 1000	–
Nc1nc2c(-c3c(Cl)cc4c(N5CCCC56CCCN(C(=O)n5cncn5)C6)nc(OC[C@@]56CCCN5C[C@H](F)C6)nc4c3F)ccc(F)c2s1 (stereo partly drawn) [Compound A144, (1-(7-(2-amino-7-fluorobenzo[d]thiazol-4-yl)-6-chloro-8-fluoro-2-(((2R,7aS)-2-fluorotetrahydro-1H-pyrrolizin-7a(5H)-yl)methoxy)quinazolin-4-yl)-1,7-diazaspiro[4.5]decan-7-yl)(1H-1,2,4-triazol-1-yl)methanone]	A (A: indicates that the ratio of IC50 against KrasG12D vs. IC50 against KrasG12S is 1-fold or greater)	–	1000 to 10000
Nc1nc2c(-c3c(Cl)cc4c(N[C@@H]5C[C@H]6CC[C@@H](C5)N6C(=O)n5cncn5)nc(OC[C@@]56CCCN5C[C@H](F)C6)nc4c3F)ccc(F)c2s1 [Compound A286, ((1R,3s,5S)-3-((7-(2-amino-7-fluorobenzo[d]thiazol-4-yl)-6-chloro-8-fluoro-2-(((2R,7aS)-2-fluorotetrahydro-1H-pyrrolizin-7a(5H)-yl)methoxy)quinazolin-4-yl)amino)-8-azabicyclo[3.2.1]octan-8-yl)(1H-1,2,4-triazol-1-yl)methanone]	A (A: indicates that the ratio of IC50 against KrasG12D vs. IC50 against KrasG12S is 1-fold or greater)	1000 to 10000	–
N#Cc1cnn(C(=O)N2CC3COCC(C2)N3c2nc(OC[C@@]34CCCN3C[C@H](F)C4)nc3c(F)c(-c4ccc(F)c5sc(N)c(C#N)c45)c(Cl)cc23)c1 [Compound A249, 1-(9-(7-(2-amino-3-cyano-7-fluorobenzo[b]thiophen-4-yl)-6-chloro-8-fluoro-2-(((2R,7aS)-2-fluorotetrahydro-1H-pyrrolizin-7a(5H)-yl)methoxy)quinazolin-4-yl)-3-oxa-7,9-diazabicyclo[3.3.1]nonane-7-carbonyl)-1H-pyrazole-4-carbonitrile]	A (A: indicates that the ratio of IC50 against KrasG12D vs. IC50 against KrasG12S is 1-fold or greater)	–	≤ 1000
Nc1nc2c(-c3c(Cl)cc4c(N5CC6CCC(C5)N6C(=O)n5cnc(F)c5)nc(OC[C@@]56CCCN5C[C@H](F)C6)nc4c3F)ccc(F)c2s1 [Compound A135, (3-(7-(2-amino-7-fluorobenzo[d]thiazol-4-yl)-6-chloro-8-fluoro-2-(((2R,7aS)-2-fluorotetrahydro-1H-pyrrolizin-7a(5H)-yl)methoxy)quinazolin-4-yl)-3,8-diazabicyclo[3.2.1]octan-8-yl)(4-fluoro-1H-imidazol-1-yl)methanone]	A (A: indicates that the ratio of IC50 against KrasG12D vs. IC50 against KrasG12S is 1-fold or greater)	≤ 1000	–
Nc1nc2c(-c3c(Cl)cc4c(NC5CCN(C(=O)n6ccc(F)n6)CC5)nc(OC[C@@]56CCCN5C[C@H](F)C6)nc4c3F)ccc(F)c2s1 [Compound A222, (4-((7-(2-amino-7-fluorobenzo[d]thiazol-4-yl)-6-chloro-8-fluoro-2-(((2R,7aS)-2-fluorotetrahydro-1H-pyrrolizin-7a(5H)-yl)methoxy)quinazolin-4-yl)amino)piperidin-1-yl)(3-fluoro-1H-pyrazol-1-yl)methanone]	A (A: indicates that the ratio of IC50 against KrasG12D vs. IC50 against KrasG12S is 1-fold or greater)	–	1000 to 10000
Nc1nc2c(-c3c(Cl)cc4c(NC5CCN(C(=O)n6cc(F)cn6)CC5)nc(OC[C@@]56CCCN5C[C@H](F)C6)nc4c3F)ccc(F)c2s1 [Compound A291, (4-((7-(2-amino-7-fluorobenzo[d]thiazol-4-yl)-6-chloro-8-fluoro-2-(((2R,7aS)-2-fluorotetrahydro-1H-pyrrolizin-7a(5H)-yl)methoxy)quinazolin-4-yl)amino)piperidin-1-yl)(4-fluoro-1H-pyrazol-1-yl)methanone]	A (A: indicates that the ratio of IC50 against KrasG12D vs. IC50 against KrasG12S is 1-fold or greater)	–	1000 to 10000
N#Cc1c(N)sc2c(F)ccc(-c3c(Cl)cc4c(O[C@H]5C[C@H]6CC[C@@H](C5)N6C(=O)n5cncn5)nc(OC[C@@]56CCCN5C[C@H](F)C6)nc4c3F)c12 [Compound A300, 4-(4-(((1R,3r,5S)-8-(1H-1,2,4-triazole-1-carbonyl)-8-azabicyclo[3.2.1]octan-3-yl)oxy)-6-chloro-8-fluoro-2-(((2R,7aS)-2-fluorotetrahydro-1H-pyrrolizin-7 a(5H)-yl)methoxy)quinazolin-7-yl)-2-amino-7-fluorobenzo[b]thiophene-3-carbonitrile]	A (A: indicates that the ratio of IC50 against KrasG12D vs. IC50 against KrasG12S is 1-fold or greater)	1000 to 10000	–
Nc1nc2c(-c3c(Cl)cc4c(N5C6COCC5CN(C(=O)n5cncn5)C6)nc(OC[C@@]56CCCN5C[C@H](F)C6)nc4c3F)ccc(F)c2s1 [Compound A270, (9-(7-(2-amino-7-fluorobenzo[d]thiazol-4-yl)-6-chloro-8-fluoro-2-(((2R,7aS)-2-fluorotetrahydro-1H-pyrrolizin-7a(5H)-yl)methoxy)quinazolin-4-yl)-3-oxa-7,9-diazabicyclo[3.3.1]nonan-7-yl)(1H-1,2,4-triazol-1-yl)methanone]	A (A: indicates that the ratio of IC50 against KrasG12D vs. IC50 against KrasG12S is 1-fold or greater)	≤ 1000	–
Nc1nc2c(-c3c(Cl)cc4c(N5CC6CCC(C5)N6C(=O)Nc5ncccn5)nc(OC[C@@]56CCCN5C[C@H](F)C6)nc4c3F)ccc(F)c2s1 [Compound A274, 3-(7-(2-amino-7-fluorobenzo[d]thiazol-4-yl)-6-chloro-8-fluoro-2-(((2R,7aS)-2-fluorotetrahydro-1H-pyrrolizin-7a(5H)-yl)methoxy)quinazolin-4-yl)-N-(pyrimidin-2-yl)-3,8-diazabicyclo[3.2. 1]octane-8-carboxamide]	A (A: indicates that the ratio of IC50 against KrasG12D vs. IC50 against KrasG12S is 1-fold or greater)	–	≤ 1000
C[C@@H]1CN(C(=O)n2cncn2)[C@@H](C)CN1c1nc(OC[C@@]23CCCN2C[C@H](F)C3)nc2c(F)c(-c3ccc(F)c4sc(N)nc34)c(Cl)cc12 [Compound A244, ((2S,5R)-4-(7-(2-amino-7-fluorobenzo[d]thiazol-4-yl)-6-chloro-8-fluoro-2-(((2R,7aS)-2-fluorotetrahydro-1H-pyrrolizin-7a(5H)-yl)methoxy)quinazolin-4-yl)-2,5-dimethylpiperazin-1-yl)(1H-1,2,4-triazol-1-yl)methanone]	A (A: indicates that the ratio of IC50 against KrasG12D vs. IC50 against KrasG12S is 1-fold or greater)	–	1000 to 10000
